The term mass density denotes the mass of a sample divided by its volume. The term viscosity denotes the resistance of a fluid to flow.

The structures appear in SMILES notation. Numbers after ± are expanded uncertainties.

For data set [1] the following is noted: for mass density / viscosity: 100.9 kPa, Liquid; for mass density: Vibrating tube method; for viscosity: Cone and plate viscometry; for Triple point temperature: Crystal; for Triple point temperature / Glass transition temperature: DSC.
Data set [2] can be described thus: Molar enthalpy of transition or fusion. As to conditions: Crystal; DSC.

Consider `C[n+]1ccn(C(C)(C)C)c1.O=S(=O)([N-]S(=O)(=O)C(F)(F)C(F)(F)F)C(F)(F)C(F)(F)F`, for which the mass density in data set [1] (293.15 K) is on record as 1530.8 ± 2 kg/m3; in data set [1] (298.15 K), 1525.2 ± 2 kg/m3; in data set [1] (303.15 K), 1519.9 ± 2 kg/m3; in data set [1] (313.15 K), 1509.6 ± 2 kg/m3; in data set [1] (323.15 K), 1498.9 ± 2 kg/m3; in data set [1] (333.15 K), 1488.6 ± 2 kg/m3. Besides, the figures for the mass density in data set [1] (343.15 K) and in data set [1] (353.15 K) were 1478.4 ± 2 kg/m3 and 1467.8 ± 2 kg/m3, respectively. In addition, the viscosity in data set [1] (293.2 K) is on record as 571.1 ± 53 mPa·s; in data set [1] (298.2 K), 367.2 ± 33 mPa·s; in data set [1] (303.2 K), 246.7 ± 21 mPa·s; in data set [1] (313.2 K) it was 126.1 ± 10 mPa·s; in data set [1] (323.2 K), 80.9 ± 6.6 mPa·s; in data set [1] (333.2 K), 50.7 ± 4.1 mPa·s. The results for the viscosity in data set [1] (343.2 K) and in data set [1] (353.2 K) were 33.9 ± 2.7 mPa·s and 23.8 ± 1.9 mPa·s, respectively. In data set [1], the Triple point temperature worked out at 294.3 ± 1.8 K. In addition, in data set [1], the Glass transition temperature is -58.0 ± 1.8 °C. In data set [2], the “Molar enthalpy of transition or fusion” value is 3.99 ± 0.12 kcal/mol.

As for `CC(C)[n+]1ccn(C)c1.O=S(=O)([N-]S(=O)(=O)C(F)(F)F)C(F)(F)F`, the mass density in data set [1] (293.15 K) was 1481.9 ± 2 kg/m3; in data set [1] (298.15 K), 1476.8 ± 2 kg/m3; in data set [1] (303.15 K) it was 1472 ± 2 kg/m3; in data set [1] (313.15 K), 1462.5 ± 2 kg/m3; in data set [1] (323.15 K), 1452.4 ± 2 kg/m3; in data set [1] (333.15 K), 1442.9 ± 2 kg/m3. The mass density in data set [1] (343.15 K) is 1433.4 ± 2 kg/m3; in data set [1] (353.15 K), 1423.7 ± 2 kg/m3. The viscosity in data set [1] (293.2 K) turned out to be 58.3 ± 4.7 mPa·s; in data set [1] (298.2 K), 45.5 ± 3.7 mPa·s; in data set [1] (303.2 K) it was 36.9 ± 3 mPa·s; in data set [1] (313.2 K), 24.5 ± 2 mPa·s; in data set [1] (323.2 K), 19.3 ± 1.6 mPa·s; in data set [1] (333.2 K) it was 14.5 ± 1.2 mPa·s. Further, the viscosity in data set [1] (343.2 K) was determined as 11.2 ± 0.9 mPa·s; in data set [1] (353.2 K) it was 8.9 ± 0.7 mPa·s. Further, in data set [1], the Triple point temperature was 283.5 ± 1.8 K. Further, the “Molar enthalpy of transition or fusion” value in data set [2] was 5.78 ± 0.167 kcal/mol.

As for `C[n+]1ccn(C(C)(C)C)c1.O=S(=O)([N-]S(=O)(=O)C(F)(F)F)C(F)(F)F`, the mass density in data set [1] (293.15 K) was found to be 1451.5 ± 2 kg/m3; in data set [1] (298.15 K), 1446.6 ± 2 kg/m3; in data set [1] (303.15 K), 1442 ± 2 kg/m3; in data set [1] (313.15 K), 1432.8 ± 2 kg/m3; in data set [1] (323.15 K), 1423.1 ± 2 kg/m3; in data set [1] (333.15 K), 1413.8 ± 2 kg/m3. For the same compound, the mass density in data set [1] (343.15 K) turned out to be 1404.5 ± 2 kg/m3; in data set [1] (353.15 K), 1395 ± 2 kg/m3. The viscosity in data set [1] (293.2 K) was found to be 167.3 ± 14 mPa·s; in data set [1] (298.2 K) it was 121.4 ± 10 mPa·s; in data set [1] (303.2 K), 91.5 ± 7.4 mPa·s; in data set [1] (313.2 K), 55.6 ± 4.5 mPa·s; in data set [1] (323.2 K), 37.5 ± 3 mPa·s; in data set [1] (333.2 K), 26.2 ± 2.1 mPa·s. Moreover, the viscosity is listed as 19 ± 1.5 mPa·s in data set [1] (343.2 K) and 14.5 ± 1.2 mPa·s in data set [1] (353.2 K). Also, the Triple point temperature in data set [1] amounted to 280.4 ± 1.8 K. Besides, in data set [2], the “Molar enthalpy of transition or fusion” value is 5.47 ± 0.167 kcal/mol.

For `C[n+]1ccn(C(C)(C)C)c1.[I-]` [1-tert-butyl-3-methylimidazolium iodide], the Triple point temperature in data set [1] was determined as 432.7 ± 1.8 K. The “Molar enthalpy of transition or fusion” value in data set [2] is 3.63 ± 0.12 kcal/mol.

For `C[n+]1ccn(C(C)(C)C)c1.F[P-](F)(F)(F)(F)F` [1-tert-butyl-3-methylimidazolium hexafluorophosphate], the Triple point temperature in data set [1] stood at 421 ± 1.8 K. Further, in data set [2], the “Molar enthalpy of transition or fusion” value amounted to 5.52 ± 0.167 kcal/mol.

As to `CC(C)[n+]1ccn(C)c1.F[P-](F)(F)(F)(F)F` [1-methyl-3-(1-methylethyl)imidazolium hexafluorophosphate], in data set [1], the Triple point temperature was found to be 374 ± 1.8 K. Also, the “Molar enthalpy of transition or fusion” value in data set [2] is 3.75 ± 0.12 kcal/mol.

For `CC(C)[n+]1ccn(C)c1.[I-]` [1-methyl-3-(1-methylethyl)imidazolium iodide], in data set [1], the Triple point temperature is 383.4 ± 1.8 K. In addition, the “Molar enthalpy of transition or fusion” value in data set [2] worked out at 3.9 ± 0.12 kcal/mol.

As to `CC(C)n1cc[n+](C)c1.O=S(=O)([N-]S(=O)(=O)C(F)(F)C(F)(F)F)C(F)(F)C(F)(F)F`, the mass density worked out at 1556.7 ± 2 kg/m3 in data set [1] (293.15 K); 1551.3 ± 2 kg/m3 in data set [1] (298.15 K); 1546 ± 2 kg/m3 in data set [1] (303.15 K); 1535.5 ± 2 kg/m3 in data set [1] (313.15 K); 1524.6 ± 2 kg/m3 in data set [1] (323.15 K); 1514 ± 2 kg/m3 in data set [1] (333.15 K). Besides, the mass density in data set [1] (343.15 K) is 1503.5 ± 2 kg/m3; in data set [1] (353.15 K), 1492.8 ± 2 kg/m3. Moreover, the viscosity in data set [1] (293.2 K) is recorded as 172.6 ± 14 mPa·s; in data set [1] (298.2 K), 121.4 ± 10 mPa·s; in data set [1] (303.2 K) it was 91.7 ± 7.5 mPa·s; in data set [1] (313.2 K), 53 ± 4.3 mPa·s; in data set [1] (323.2 K), 38 ± 3.1 mPa·s; in data set [1] (333.2 K) it was 26.4 ± 2.1 mPa·s. The viscosity in data set [1] (343.2 K) stood at 19.1 ± 1.5 mPa·s; in data set [1] (353.2 K) it was 14.4 ± 1.2 mPa·s. The Glass transition temperature in data set [1] is -75.7 ± 1.8 °C.
